This assay relates to LXRα and/or LXRβ. As to the kind of experiment: LXR/LXRE co-transfection assay (luciferase reporter, CV-1 cells). The class given is cell-based, human. The note with it: IC50 or EC50 for LXR (LXRα and/or LXRβ, not distinguished), tested as described in Example 109, CV-1 cells. The procedure, abridged:
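Transient co-transfection of CV-1 cells with full-length human LXRα or LXRβ plus RXRα expression plasmids and an LXREx1-Tk-luciferase reporter; compounds (10 μM screen, ≤1% DMSO) incubated 20 h at 37 °C. Luminescence read after lysis; EC50/IC50 from 8-point half-log curves, efficacy relative to a high control or DMSO.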
(In general: In a reporter assay the amount or activity of a reporter protein is the signal.)

Several values for one entry are separate records, joined by “and”; a condition that tells them apart may be missing. Equal values may be shown once.

The EC50 is the concentration that produces a half-maximal response. High values mean a less potent agent, low ones a more potent agent. For `O=C(c1ccc(-c2cc(C(F)(F)F)nn2-c2ccccc2Cl)cc1)N1CCCC1CO` (stereo not shown) [Example 1000, [1-({4-[1-(2-chlorophenyl)-3-(trifluoromethyl)-1H-pyrazol-5-yl]phenyl}carbonyl)pyrrolidin-2-yl]methanol], the concentration for a half-maximal effect (EC50) lay within 1000 to 10000 nM.
The compound `CN1CCC(N(C(=O)c2ccc(-c3cc(C(F)(F)F)nn3-c3ccccc3Cl)cc2)C2CC2)CC1` [Example 1029, 4-[1-(2-chlorophenyl)-3-(trifluoromethyl)-1H-pyrazol-5-yl]-N-cyclopropyl-N-(1-methylpiperidin-4-yl)benzamide] registered an EC50 of 1000 to 10000 nM.
Next, `CS(=O)(=O)c1cccc(-c2ccc(-c3cc(C(=O)N4CCCC4)nn3-c3ccccc3Cl)s2)c1` [Example 1129, 1-(2-chlorophenyl)-5-{5-[3-(methylsulfonyl)phenyl]-2-thienyl}-3-(pyrrolidin-1-ylcarbonyl)-1H-pyrazole]: below 1000 nM; `CS(=O)(=O)c1cccc(-c2ccc(-c3cc(C(F)(F)F)nn3-c3ccccc3S(N)(=O)=O)s2)c1` [Example 1131, 2-[5-{5-[3-(methylsulfonyl)phenyl]-2-thienyl}-3-(trifluoromethyl)-1H-pyrazol-1-yl]benzenesulfonamide]: below 1000 nM.
Next, `CS(=O)(=O)c1cccc(-c2ccc(-c3cc(C(=O)Nc4cccc(C(F)(F)F)c4)nn3-c3ccccc3Cl)s2)c1` [Example 1133, 1-(2-chlorophenyl)-5-{5-[3-(methylsulfonyl)phenyl]-2-thienyl}-N-[3-(trifluoromethyl)phenyl]-1H-pyrazole-3-carboxamide]: 1000 to 10000 nM.
Next, `CC(C)(C#N)c1cc(-c2ccc(-c3cccc(S(C)(=O)=O)c3)s2)n(-c2ccccc2Cl)n1` [Example 1134, 2-[1-(2-chlorophenyl)-5-{5-[3-(methylsulfonyl)phenyl]-2-thienyl}-1H-pyrazol-3-yl]-2-methylpropanenitrile]: below 1000 nM.
With `CS(=O)(=O)c1cccc(-c2ccc(-c3cc(Cc4nnn[nH]4)nn3-c3ccccc3Cl)s2)c1` [Example 1136, 5-{[1-(2-chlorophenyl)-5-{5-[3-(methylsulfonyl)phenyl]-2-thienyl}-1H-pyrazol-3-yl]methyl}-1H-tetrazole], the EC50 lay in the range of 1000 to 10000 nM.
Next, `NS(=O)(=O)c1cccc(-c2ccc(-c3cc(C(F)(F)F)nn3-c3ccccc3Cl)cc2)c1` [Example 1137, 4′-[1-(2-chlorophenyl)-3-(trifluoromethyl)-1H-pyrazol-5-yl]biphenyl-3-sulfonamide]: below 1000 nM; `COC(=O)c1cc(-c2cc(C(F)(F)F)nn2-c2ccccc2Cl)ccc1-c1cccc(S(C)(=O)=O)c1` [Example 1138, methyl 4-[1-(2-chlorophenyl)-3-(trifluoromethyl)-1H-pyrazol-5-yl]-3′-(methylsulfonyl)biphenyl-2-carboxylate]: 1000 to 10000 nM.
Next, `CS(=O)(=O)c1cccc(-c2ccc(-c3cc(C(F)(F)F)nn3-c3ccccc3Cl)cc2C(=O)O)c1` [Example 1139, 4-[1-(2-chlorophenyl)-3-(trifluoromethyl)-1H-pyrazol-5-yl]-3′-(methylsulfonyl)biphenyl-2-carboxylic acid]: 1000 to 10000 nM and < 1000 nM.
Compound `CCN(CC)CCN(C)C(=O)c1cc(-c2ccc(-c3cccc(S(C)(=O)=O)c3)s2)n(-c2ccccc2Cl)n1` [Example 1140, 1-(2-chlorophenyl)-N-[2-(diethylamino)ethyl]-N-methyl-5-{5-[3-(methylsulfonyl)phenyl]-2-thienyl}-1H-pyrazole-5-carboxamide] yielded a concentration for a half-maximal effect (EC50) of 1000 to 10000 nM.
Next, `CS(=O)(=O)c1cccc(-c2ccc(-c3cc(C(F)(F)F)nn3-c3ccccc3Cl)cc2C(=O)N2CCOCC2)c1` [Example 1142, 4-({4-[1-(2-chlorophenyl)-3-(trifluoromethyl)-1H-pyrazol-5-yl]-3′-(methylsulfonyl)biphenyl-2-yl}carbonyl)morpholine]: 1000 to 10000 nM; `CN(C)CCN(C)C(=O)c1cc(-c2ccc(-c3cccc(S(C)(=O)=O)c3)s2)n(-c2ccccc2Cl)n1` [Example 1144, 1-(2-chlorophenyl)-N-[2-(dimethylamino)ethyl]-N-methyl-5-{5-[3-(methylsulfonyl)phenyl]-2-thienyl}-1H-pyrazole-3-carboxamide]: 1000 to 10000 nM; `CCC(O)CS(=O)(=O)c1cccc(-c2ccc(-c3cc(C(F)(F)F)nn3-c3cc(Cl)ccc3Cl)s2)c1` (stereo not shown) [Example 1146, 1-[(3-{5-[1-(2,5-dichlorophenyl)-3-(trifluoromethyl)-1H-pyrazol-5-yl]-2-thienyl}phenyl)sulfonyl]butan-2-ol]: below 1000 nM.
The compound `CN(Cc1cc(-c2ccc(-c3cccc(S(C)(=O)=O)c3)s2)n(-c2ccccc2Cl)n1)Cc1ncco1` [Example 1147, 1-[1-(2-chlorophenyl)-5-{5-[3-(methylsulfonyl)phenyl]-2-thienyl}-1H-pyrazol-3-yl]-N-methyl-N-(1,3-oxazol-2-ylmethyl)methanamine] displayed a half-maximal effective concentration (EC50) below 1000 nM.
Consider `CS(=O)(=O)c1cccc(-c2ccc(-c3cc(C(F)(F)F)nn3-c3ccccc3Cl)cc2CN2CCOCC2)c1` [Example 1148], for which the EC50 was 1000 to 10000 nM.
Regarding `CS(=O)(=O)c1cc(-c2ccc(-c3cc(C(F)(F)F)nn3-c3ncccc3C(F)(F)F)s2)ccc1CO` [Example 1149, [2-(methylsulfonyl)-4-(5-{3-(trifluoromethyl)-1-[3-(trifluoromethyl)pyridin-2-yl]-1H-pyrazol-5-yl}-2-thienyl)phenyl]methanol], the 50% effective concentration (EC50) was below 1000 nM.
Next, `CC(=O)c1cc(-c2ccc(-c3cccc(S(C)(=O)=O)c3)s2)n(-c2ccccc2Cl)n1` [Example 1150, 1-[1-(2-chlorophenyl)-5-{5-[3-(methylsulfonyl)phenyl]-2-thienyl}-1H-pyrazol-3-yl]ethanone]: below 1000 nM; `CC(C)(N)c1cc(-c2ccc(-c3cccc(S(C)(=O)=O)c3)s2)n(-c2ccccc2Cl)n1` [Example 1151, 2-[1-(2-chlorophenyl)-5-{5-[3-(methylsulfonyl)phenyl]-2-thienyl}-1H-pyrazol-3-yl]propan-2-amine]: 1000 to 10000 nM.
To `O=C(O)Cc1ccc(F)c(-c2ccc(-c3cc(C(F)(F)F)nn3-c3ncccc3C(F)(F)F)s2)c1` [Example 1152, [4-fluoro-3-(5-{3-(trifluoromethyl)-1-[3-(trifluoromethyl)pyridin-2-yl]-1H-pyrazol-5-yl}-2-thienyl)phenyl]acetic acid] belongs 1000 to 10000 nM; to `COC(=O)Cc1ccc(-c2ccc(-c3cc(C(F)(F)F)nn3-c3ncccc3C(F)(F)F)s2)c(C)c1` [Example 1153, methyl [3-methyl-4-(5-{3-(trifluoromethyl)-1-[3-(trifluoromethyl)pyridin-2-yl]-1H-pyrazol-5-yl}-2-thienyl)phenyl]acetate], 1000 to 10000 nM.
Compound `CN(CC(=O)O)C(=O)c1cc(-c2ccc(-c3cccc(S(C)(=O)=O)c3)s2)n(-c2ccccc2Cl)n1` [Example 1154, N-{[1-(2-chlorophenyl)-5-{5-[3-(methylsulfonyl)phenyl]-2-thienyl}-1H-pyrazol-3-yl]carbonyl}-N-methylglycine] displayed a concentration for a half-maximal effect (EC50) of 1000 to 10000 nM.
On to `Cc1cc(CC(=O)O)ccc1-c1ccc(-c2cc(C(F)(F)F)nn2-c2ncccc2C(F)(F)F)s1` [Example 1155, [3-methyl-4-(5-{3-(trifluoromethyl)-1-[3-(trifluoromethyl)pyridin-2-yl]-1H-pyrazol-5-yl}-2-thienyl)phenyl]acetic acid], for which the concentration giving a half-maximal response (EC50) fell in the range of 1000 to 10000 nM.
`COC(=O)c1cc(-c2ccc(-c3cccc(S(C)(=O)=O)c3)s2)n(-c2ccccc2C(F)(F)F)n1` [Example 1156, methyl 5-{5-[3-(methylsulfonyl)phenyl]-2-thienyl}-1-[2-(trifluoromethyl)phenyl]-1H-pyrazole-3-carboxylate] returned an EC50 of 1000 to 10000 nM.
The compound `CC(O)c1cc(-c2ccc(-c3cccc(S(C)(=O)=O)c3)s2)n(-c2ccccc2Cl)n1` (stereo not shown) [Example 1157, 1-[1-(2-chlorophenyl)-5-{5-[3-(methylsulfonyl)phenyl]-2-thienyl}-1H-pyrazol-3-yl]ethanol] yielded an EC50 below 1000 nM.
`CC(C)(O)c1cc(-c2ccc(-c3cccc(S(C)(=O)=O)c3)s2)n(-c2ccccc2C(F)(F)F)n1` [Example 1158, 2-(5-{5-[3-(methylsulfonyl)phenyl]-2-thienyl}-1-[2-(trifluoromethyl)phenyl]-1H-pyrazol-3-yl)propan-2-ol] came in with an EC50 below 1000 nM.
`CC(C)(c1cc(-c2ccc(-c3cccc(S(C)(=O)=O)c3)s2)n(-c2ccccc2Cl)n1)N1CCOCC1` [Example 1159, 4-{1-[1-(2-chlorophenyl)-5-{5-[3-(methylsulfonyl)phenyl]-2-thienyl}-1H-pyrazol-3-yl]-1-methylethyl}morpholine] returned an EC50 below 1000 nM.
`CS(=O)(=O)c1cccc(-c2ccc(-c3cc(C(=O)NCC(F)(F)F)nn3-c3ccccc3Cl)s2)c1` [Example 1161, 1-(2-chlorophenyl)-5-{5-[3-(methylsulfonyl)phenyl]-2-thienyl}-N-(2,2,2-trifluoroethyl)-1H-pyrazole-3-carboxamide] had an EC50 below 1000 nM.
`CON(C)C(=O)c1cc(-c2ccc(-c3cccc(S(C)(=O)=O)c3)s2)n(-c2ccccc2Cl)n1` [Example 1162, 1-(2-chlorophenyl)-N-methyl-N-(methyloxy)-5-{5-[3-(methylsulfonyl)phenyl]-2-thienyl}-1H-pyrazole-3-carboxamide] displayed an EC50 below 1000 nM.
In the case of `CONC(=O)c1cc(-c2ccc(-c3cccc(S(C)(=O)=O)c3)s2)n(-c2ccccc2Cl)n1` [Example 1163, 1-(2-chlorophenyl)-N-(methyloxy)-5-{5-[3-(methylsulfonyl)phenyl]-2-thienyl}-1H-pyrazole-3-carboxamide], the EC50 is 1000 to 10000 nM.
In turn, `CS(=O)(=O)c1cccc(-c2ccc(-c3cc(C(O)(C(F)(F)F)C(F)(F)F)nn3-c3ccccc3Cl)s2)c1` [Example 1164, 2-[1-(2-chlorophenyl)-5-{5-[3-(methylsulfonyl)phenyl]-2-thienyl}-1H-pyrazol-3-yl]-1,1,1,3,3,3-hexafluoropropan-2-ol] showed an EC50 below 1000 nM.

The values are drawn from US8703805B2 (Exelixis Patent Company LLC, priority 2005, dated 2014).
